This is an account of results in patent US7745446B2, “Pyrazolo[1,5-c]pyrimidines” (Bayer Schering Pharma Aktiengesellschaft, priority 2004, dated 2010).

A value given as a limit tells only on which side of the number the result lay.

For test [1], the system named is phosphorylated Akt1 (Ser473) in MCF7 cells. The test can be described thus: Cellular PI3K/Akt pathway assay (pAkt-ELISA). The format is cell-based. Conditions: Homo sapiens, β-Heregulin stimulation, 48 h, read-out: Akt pathway inhibition (pAkt-ELISA): IC50. On the procedure:
In order to study the cellular activity of the compounds according to the invention, an ELISA-based assay has been established. The assay is based on a Sandwich ELISA kit (PathScan™ Phospho-Akt1 (Ser473); Cell Signaling, USA; #7160).
The assay detects endogenous levels of phosphorylated Akt1 protein. A phospho-Akt (Ser473) antibody (Cell Signaling, USA; #9271) has been coated onto the microwells. After incubation with cell lysates, the phosphorylated Akt protein is captured by the coated antibody. Following extensive washing, Akt1 monoclonal antibody (Cell Signaling, USA; #2967) is added to detect the captured phospho-Akt1 protein. HRP-linked anti-mouse antibody (Cell Signaling, USA; #7076) is then used to recognize the bound detection antibody. HRP substrate (=TMB; Cell Signaling, USA; #7160) is added to develop colour. The magnitude of optical density for this developed color is proportional to the quantity of phosphorylated Akt1 protein.
MCF7 cells (ATCC HTB-22) are seeded into 96 well fate bottom plates at a density of 10000 cells/well. 24 hours after seeding the cells are starved using estrogen-free medium (IMEM including 0.1% charcoal treated FCS). […] To stimulate Akt phosphorylation, β-Heregulin (20 ng/ml) is added in parallel to the compounds. Wells containing unstimulated control cells (no β-Heregulin stimulation) are incubated with or without the diluted compound. Wells containing untreated control cells (no compound) are filled with medium containing 0.5% v:v DMSO and are with P-Heregulin or are not stimulated.
Cells are harvested under nondenaturating conditions and lysed with brief sonification in 1× cell lyses buffer (20 mM Tris (pH7.5), 150 mM NaCl, 1 mM ethylene diaminetetraacetate (EDTA), 1 mM ethylene glycolbis-(2-aminoethyl)-N,N,N′,N′-tetraacetic acid (EGTA), 1% Triton X-100, 2.5 mM sodium pyrophosphate, 1 mM β-glycerolphosphate, 1 mM Na3VO4, 1 μg/ml leupeptin). The lysate is microcentrifuged for 10 minutes at 4° C. and the supernatant is transferred to a new tube. 100 μl of sample diluent (0.1% tween-20, 0.1% sodium azide in 20× PBS) are added to a microcentrifuge tube and 100 μl of cell lysate are transferred into the tube and vortexed. 100 μl of each diluted cell lysate are added to the appropriate well (phospho-Akt (Ser473) antibody coated microwells; Cell Signaling, USA; #7160) and incubated overnight at 4° C. The plates are washed 4 times with 1× wash buffer (1% tween-20, 0.33% thymol, in 20×PBS). Then 100 μl of detection antibody (Akt1 (2H10) monoclonal detection antibody; Cell Signaling, USA; #2967) are added to each well and incubated for 1 h at 37° C. The washing procedure is repeated between each step. […] The absorbance is read at 450 nm (Wallac Victor2; Perkin Elmer, USA) within 30 minutes after adding STOP solution. […]

The next test deals with MDA-MB-468 cells. Description: Cellular proliferation/cytotoxicity assay (Alamar Blue), MDA-MB-468. Conditions: Homo sapiens, MDA-MB-468, 48 h, read-out: Anti-proliferative/cytotoxic activity: IC50 MDA468. On the technique in general: The colour change of resazurin is a common sign of viable cells or microbes.
In the next test the target is T1, PKA (Homo sapiens, UniProt P17612).
T1 construct: His; purchased PanVera, USA #R3791; host or cells: E. coli
The test can be described thus: Biochemical PKA assay (flashplate). Conditions: 100 nM ATP; read-out: PKA inhibition: −log IC50 (converted). In short, it runs like this:
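His-tagged human recombinant PKA catalytic subunit (E. coli), 1 ng/well, with 0.5 μM PKA peptide and 100 nM ATP including ^33P-ATP. Buffer […] pH7,5, 3 mM MgCl2, 3 mM MnCl2, Na-orthovanadate, 1 mM DTT; 80 min at 22° C. Stopped with H3PO4, scintillation flashplate counting, IC50 derived.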

Regarding `COc1cccc(-c2ccc(-c3cc4c(Br)cnn4c(Nc4ccc(NC(=O)c5ccc(CN)cc5)cc4)n3)cc2)c1` [Example 87, 4-Aminomethyl-N-{4-[3-bromo-5-(3′-methoxy-biphenyl-4-yl)-pyrazolo[1,5-c]pyrimidin-7-ylamino]-phenyl}-benzamide], the IC50 in test [1] is at most 6 µM; in the test with MDA-MB-468 cells, at most 13.6 µM.

Turning to `COc1cccc(-c2ccc(-c3cc4ccnn4c(Nc4ccc(NC(=O)c5ccc(CN)cc5)cc4)n3)cc2)c1` [Example 59, 4-Aminomethyl-N-{4-[5-(3′-methoxy-biphenyl-4-yl)-pyrazolo[1,5-c]pyrimidin-7-ylamino]-phenyl}-benzamide], the figures for the IC50 (on PKA; in test [1]; in the test on MDA-MB-468 cells) were 6.31 to 100 µM, at most 6 µM and at most 13.6 µM, respectively.

Turning to `O=C(Nc1cccc(Nc2nc(-c3cccc4c3oc3ccccc34)cc3ccnn23)c1)c1ccc2c(c1)CCNC2` [Example 63, 1,2,3,4-Tetrahydro-isoquinoline-6-carboxylic acid [3-(5-dibenzofuran-4-yl-pyrazolo[1,5-c]pyrimidin-7-ylamino)-phenyl]-amide], the IC50 on PKA is 6.31 to 100 µM; in test [1] it was at most 6 µM; with MDA-MB-468 cells, at most 13.6 µM.

Regarding `NCCCC(=O)Nc1ccc(Nc2nc(-c3cccc4c3oc3ccccc34)cc3ccnn23)cc1` [Example 24, 4-Amino-N-[4-(5-dibenzofuran-4-yl-pyrazolo[1,5-c]pyrimidin-7-ylamino)-phenyl]-butyramide], the results for the IC50 (in test [1]; in the test with MDA-MB-468 cells) were at most 6 µM and at most 13.6 µM, respectively.
